The record followed here is US5008267A, “Pyrimidinedione compounds, method of producing the same and antiarrythmic agents containing the same” (Mitsui Toatsu Chemicals, Incorporated, priority 1988, dated 1991).

Structures can show the parent of a compound that is named as a salt. Where two headings read alike, the source gives them in different places.

The test system of assay [1] is ventricular muscle refractory period. Description: Influence on ventricular muscle refractory period (ERP). Type of assay: in vivo, mongrel dog. The following applies: Canis lupus familiaris, iv, i.v., (W-Y)/Y×100, read-out: ERP (%; extensibility of refractory period). On the procedure: (2) Influence on ventricular muscle refractory period Refractory periods were measured in the following manner before and after each of the compounds and d-sotalol shown in Table 2 was separately administered to a vein or a duodenum, and ERP (%; extensibility of refractory period) was calculated from the measured values: ERP (%)=(W-Y)/Y×100 W: Refractory period after administration Y: Refractory period before administration To a mongrel adult dog, 30 mg/kg of pentobarbital was administered intravenously, and after being anesthetized, a pair of silver-silver chloride electrodes separated by 3 mm was sewn on an opened right ventricule, and electrical stimulation was given at an interval of 400 msec at a duration time of 4 msec under a current twice as much as the threshold. Afterward, a small amount of alcohol was injected into a sinus artery in order to extinguish a pacemaker activity, and the ventricular refractory period (ERP) was measured under ventricule pacing. That is, each 1 train comprised 10 stimulations having intervals of 400 msec, and an interval between the trains was usually 400 msec. However, this interval was shortened 10 msec by 10 msec at the time of the refractory period measurement, and an interval between the trains at the time when reaction to the first stimulation of the train disappeared was regarded as the refractory period. In this case, the electrical stimulation was fed in accordance with a program by a heart stimulation device (Diamedical Co., Ltd.; DHM-226-3).

Assay [2] concerns Purkinje fiber of the right ventricular free wall (myocardial action potential). Description: Influence on myocardial action potential duration time (APD75), isolated right ventricular free wall, microelectrode in Purkinje fiber. Type of assay: cell-based, dog. The following applies: Canis lupus familiaris, 20 min; for activation at 0.3 µg/mL: 0.3 μg/ml, (B-A)/A×100.
Setting [3] is: 1.0 μg/ml, 20 minutes' incubation, (B-A)/A×100, read-out: APD75 (%).
[4] abbreviates: 3.0 μg/ml, 20 minutes' incubation, (B-A)/A×100, read-out: APD75 (%).
Where [5] appears, read: 10.0 μg/ml, 20 minutes' incubation, (B-A)/A×100, read-out: APD75 (%).

`Cn1c(N2CCN(CCCNc3ccc([N+](=O)[O-])cc3C(=O)c3ccccc3)CC2)cc(=O)n(C)c1=O` [Compound 111, 1,3-dimethyl-6-{4-[3-(2-benzoyl-4-nitroanilino)propyl]piperazin-1-yl}-2,4(1H,3H)-pyrimidinedione oxalate]: in assay [1], the change in vivo at 0.1 mg/kg was 7.7%, the change in vivo at 0.3 mg/kg amounted to 10.9%, the change in vivo at 1 mg/kg was found to be 14% and the change in vivo at 3 mg/kg stood at 21%. Also, in assay [2] (setting [3]), the activation at 1 µg/mL came out at 13%. Moreover, the activation at 3 µg/mL in assay [2] (setting [4]) turned out to be 21%.
Take `Cn1c(N2CCN(CCc3ccc([N+](=O)[O-])cc3)CC2)cc(=O)n(C)c1=O` [Compound 14, 1,3-dimethyl-6-{4-[2-(4-nitrophenyl)ethyl]piperazin-1-yl}-2,4(1H,3H)-pyrimidinedione hydrochloride]: in assay [1], the change in vivo at 0.1 mg/kg was determined as 14% and the change in vivo at 0.3 mg/kg is 33.5%. The compound further displayed an activation at 0.3 µg/mL in assay [2] (20 minutes' incubation) of 18%. In addition, the activation at 1 µg/mL in assay [2] (setting [3]) was determined as 43%.
`Cn1c(N2CCN(CCCc3ccc([N+](=O)[O-])cc3)CC2)cc(=O)n(C)c1=O` [Compound 33, 1,3-dimethyl-6-{4-[3-(4-nitrophenyl)propyl]piperazin-1-yl)-2,4(1H,3H)-pyrimidinedione oxalate]: in assay [1], the change in vivo at 0.1 mg/kg is 14.3%, the change in vivo at 0.3 mg/kg was 14.3%, the change in vivo at 1 mg/kg came out at 17.9% and the change in vivo at 3 mg/kg turned out to be 21.4%. Further, in assay [2] (setting [3]), the activation at 1 µg/mL was determined as 17%. For the same compound, the activation at 3 µg/mL in assay [2] (setting [4]) came out at 22%. In assay [2] (setting [5]), the activation at 10 µg/mL was determined as 31%.
With `Cn1c(NCCNC2CCN(c3ccc([N+](=O)[O-])cc3)CC2)cc(=O)n(C)c1=O` [Compound 61, 1,3-dimethyl-6-{2-[[1-(4-nitrophenyl)piperidin-4-yl]amino]ethylamino}-2,4(1H,3H)-pyrimidinedione oxalate], in assay [1], the change in vivo at 0.1 mg/kg stood at 8.3%, the change in vivo at 0.3 mg/kg was 8.3% and the change in vivo at 1 mg/kg stood at 8.3%.
Consider `Cn1c(NCCN2CCN(c3ccc([N+](=O)[O-])cc3)CC2)cc(=O)n(C)c1=O` [Compound 64, 1,3-dimethyl-6-{2-[4-(4-nitrophenyl)piperazin-1-yl]ethylamino}-2,4(1H,3H)-pyrimidinedione oxalate], for which, in assay [1], the change in vivo at 0.1 mg/kg amounted to 21.4%, the change in vivo at 0.3 mg/kg worked out at 28.6% and the change in vivo at 1 mg/kg stood at 28.6%. For the same compound, the activation at 0.3 µg/mL in assay [2] (20 minutes' incubation) amounted to 8%. Besides, the activation at 1 µg/mL in assay [2] (setting [3]) is 23%. Also, the activation at 3 µg/mL in assay [2] (setting [4]) turned out to be 32%.
Regarding `Cn1c(NCCNCc2ccc([N+](=O)[O-])cc2)cc(=O)n(C)c1=O` [Compound 15, 1,3-dimethyl-6-[2-(4-nitrobenzylamino)ethylamino]-2,4(1H,3H)-pyrimidinedione oxalate], in assay [1], the change in vivo at 0.1 mg/kg was 6.3%, the change in vivo at 0.3 mg/kg stood at 12.5%, the change in vivo at 1 mg/kg stood at 12.5% and the change in vivo at 3 mg/kg came to 18.8%. Further, the activation at 3 µg/mL in assay [2] (setting [4]) amounted to 6%. Moreover, the activation at 10 µg/mL in assay [2] (setting [5]) was 16%.
Consider `Cn1c(N2CCN(CC(=O)Nc3ccc([N+](=O)[O-])cc3)CC2)cc(=O)n(C)c1=O` [Compound 47, 1,3-dimethyl-6-{4-[N-(4-nitrophenyl)carbamoylmethyl]piperazin-1-yl}-2,4(1H,3H)pyrimidinedione oxalate], for which the activation at 1 µg/mL in assay [2] (setting [3]) came to 5%. Moreover, the activation at 3 µg/mL in assay [2] (setting [4]) amounted to 11%. Further, in assay [2] (setting [5]), the activation at 10 µg/mL came to 16%.
On to `Cn1c(N2CCN(CCOc3ccc([N+](=O)[O-])cc3C(=O)c3ccccc3)CC2)cc(=O)n(C)c1=O` [Compound 99], for which, in assay [1], the change in vivo at 0.1 mg/kg was 9.8%, the change in vivo at 0.3 mg/kg is 14.7% and the change in vivo at 1 mg/kg came out at 23.1%. The activation at 1 µg/mL in assay [2] (setting [3]) came to 9%. The activation at 3 µg/mL in assay [2] (setting [4]) was found to be 22%. Further, the activation at 10 µg/mL in assay [2] (setting [5]) turned out to be 29%.
As for `Cn1c(N2CCN(CCCc3ccc(C(=O)c4ccccc4)cc3[N+](=O)[O-])CC2)cc(=O)n(C)c1=O` [Compound 136, 1,3-dimethyl-6-{4-[3-(4-benzoyl-2-nitrophenyl)propyl]piperazin-1-yl}-2,4(1H,3H)-pyrimidinedione hydrochloride], in assay [1], the change in vivo at 0.3 mg/kg came to 7.7%, the change in vivo at 1 mg/kg amounted to 15.4% and the change in vivo at 3 mg/kg worked out at 15.4%. Further, the activation at 1 µg/mL in assay [2] (setting [3]) worked out at 11%. The activation at 3 µg/mL in assay [2] (setting [4]) was 14%.
`Cn1c(NCCN(CCCc2ccc([N+](=O)[O-])cc2)CCOC(=O)c2ccccc2)cc(=O)n(C)c1=O` [Compound 168, 1,3-dimethyl-6-{2-[N-(2-benzoyloxyethyl)-3-(4-nitrophenyl)propylamino]ethylamino}-2,4(1H,3H)-pyrimidinedione oxalate]: in assay [1], the change in vivo at 0.1 mg/kg is 6%, the change in vivo at 0.3 mg/kg turned out to be 12%, the change in vivo at 1 mg/kg came out at 18% and the change in vivo at 3 mg/kg amounted to 18%. Moreover, in assay [2] (setting [3]), the activation at 1 µg/mL came to 48%. For the same compound, the activation at 3 µg/mL in assay [2] (setting [4]) turned out to be 55%. Moreover, in assay [2] (setting [5]), the activation at 10 µg/mL came out at 68%.
For `Cn1c(N2CCN(CCCOc3ccc([N+](=O)[O-])cc3O)CC2)cc(=O)n(C)c1=O` [Compound 162, 1,3-dimethyl-6-{4-[3-(2-hydroxy-4-nitrophenyloxy)propyl]piperazin-1-yl}-2,4(1H,3H)-pyrimidinedione hydrochloride], in assay [1], the change in vivo at 0.1 mg/kg is 0%, the change in vivo at 0.3 mg/kg worked out at 0%, the change in vivo at 1 mg/kg worked out at 0% and the change in vivo at 3 mg/kg is 0%. Further, the activation at 1 µg/mL in assay [2] (setting [3]) was found to be 19%. Moreover, the activation at 3 µg/mL in assay [2] (setting [4]) was found to be 41%. Moreover, the activation at 10 µg/mL in assay [2] (setting [5]) was 60%.
For `CCN(CCCNc1ccc([N+](=O)[O-])cc1)CCNc1cc(=O)n(C)c(=O)n1C` [Compound 73, 1,3-dimethyl-6-{2-[N-ethyl-3-(4-nitroanilino)propylamino]ethylamino}-2,4(1H,3H)-pyrimidinedione hydrochloride], the activation at 1 µg/mL in assay [2] (setting [3]) came to 2%. The activation at 3 µg/mL in assay [2] (setting [4]) is 12%. Besides, the activation at 10 µg/mL in assay [2] (setting [5]) amounted to 18%.
Take `Cn1c(NCCN(CCO)CCCc2ccc([N+](=O)[O-])cc2)c([N+](=O)[O-])c(=O)n(C)c1=O` [Compound 180, 1,3-dimethyl-6-{2-[N-(2-hydroxethyl)-3-(4-nitrophenyl)propylamino]ethylamino}-5-nitro-2,4(1H,3H)-pyrimidinedione hydrochloride]: in assay [2] (read-out: APD75 (%)), the activation at 1 µg/mL stood at 11%, the activation at 3 µg/mL was 20% and the activation at 10 µg/mL stood at 26%.
Regarding `CC(=O)c1ccc(OCCN2CCN(c3cc(=O)n(C)c(=O)n3C)CC2)c([N+](=O)[O-])c1` [Compound 102], the activation at 1 µg/mL in assay [2] (setting [3]) came to 7%. In addition, the activation at 3 µg/mL in assay [2] (setting [4]) was 20%.
In the case of `COCCN(CCCc1ccc([N+](=O)[O-])cc1)CCNc1cc(=O)n(C)c(=O)n1C` [Compound 171, 1,3-dimethyl-6-{2-[N-(2-methoxyethyl)-3-(4-nitrophenyl)propylamino]ethylamino}-2,4(1H,3H)-pyrimidinedione oxalate], in assay [2] (setting [3]), the activation at 1 µg/mL was found to be 19%. Further, in assay [2] (setting [4]), the activation at 3 µg/mL turned out to be 23%. For the same compound, in assay [2] (setting [5]), the activation at 10 µg/mL was found to be 38%.
For the compound `Cn1c(N2CCN(c3ccc([N+](=O)[O-])cc3)CC2)cc(=O)n(C)c1=O` [Compound 1, 1,3-dimethyl-6-[4-(4-nitrophenyl)piperazin-1-yl]-2,4(1H,3H)-pyrimidinedione], in assay [1], the change in vivo at 0.1 mg/kg amounted to 3.6%, the change in vivo at 0.3 mg/kg came to 3.6% and the change in vivo at 1 mg/kg came out at 10.3%.
Consider `Cn1c(N2CCN(CCCOc3ccc([N+](=O)[O-])cc3C(=O)c3ccccc3O)CC2)cc(=O)n(C)c1=O` [Compound 104, 1,3-dimethyl-6-{4-<3-[2-(2-hydroxybenzoyl)-4-nitrophenoxy]propyl>piperazin-1-yl}-2,4(1H,3H)-pyrimidinedione oxalate], for which the activation at 3 µg/mL in assay [2] (setting [4]) stood at 16%. In addition, in assay [2] (setting [5]), the activation at 10 µg/mL was 25%.
Take `Cn1c(N2CCN(CCCNc3ccc([N+](=O)[O-])cc3)CC2)cc(=O)n(C)c1=O` [Compound 58]: the activation at 1 µg/mL in assay [2] (setting [3]) is 10%. In addition, the activation at 3 µg/mL in assay [2] (setting [4]) stood at 18%. Moreover, the activation at 10 µg/mL in assay [2] (setting [5]) came to 28%.
The matching figures for `CC(=O)c1cc([N+](=O)[O-])ccc1NCCCN1CCN(c2cc(=O)n(C)c(=O)n2C)CC1` [Compound 120, 1,3-dimethyl-6-{4-[3-(2-acetyl-4-nitroanilino)propyl]piperazin-1-yl}-2,4(1H,3H)-pyrimidinedione oxalate]: 16%, 27% and 29%.
